Reference: patent US12312376B2 (priority 2020, dated 2025)
Read-outs that look alike come from different tables or passages of the source.

Columns and labels:
[1] = Intranasal safety profile of rintatolimod compared with EC90; type: in vivo, humans; conditions: dose concentration 2500 μg/ml (45×EC90)
[2] = Clinical trials of tdsRNA (safety); type: in vivo
Description: tdsRNA has undergone extensive clinical and preclinical testing. […] Favorable safety profiles have been seen for intraperitoneal, intravenous, and intranasal routes of administration of tdsRNA.

[3] = system: normal, human-derived tracheal/bronchial epithelial (TBE) cells
[4] = over 1,200 patients, over 100,000 doses administered

Substance: rIn•r(C12U)n [Rintatolimod]
- Intranasal tolerability in humans [1]: well tolerated in humans
- drug-related deaths [2, 4]: no drug-related deaths
- tolerability in clinical trials [2, 4]: generally well-tolerated
- serious adverse events compared to placebo ([2]; two placebo-controlled, randomized studies): no increase in serious adverse events compared to placebo
- cellular toxicity ([3]; 0.5 mg/mL): 0%
- cellular toxicity ([3]; 1.5 mg/mL): 0%
- cytotoxic ([3]; 4.5 mg/mL): 12%
- cytotoxic ([3]; 10 mg/mL): 47%
